{
  "source": "PubChem BioAssay AID1845212",
  "about": "(Molecular Pharmacology Branch, DTP, NCI, 2023)",
  "test_system": "NCI-H719 tumor spheroids, viability",
  "assay": "Anticancer human tumor NCI-H719 cell line growth inhibition;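 further: spheroids exposed to compounds for seven days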;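 on viability, T/C: percent viability relative to DMSO vehicle control as 100%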",
  "settings": "spheroids with HUVEC and MSC; for IC50: curve of first compound; for viability, T/C: stronger effect = lower value",
  "in_short": "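Complex spheroids of malignant cells with endothelial cells and mesenchymal stem cells; agents alone or combined, from near clinical Cmax (or 10 microM if unknown) down in half-log steps, 0.25% DMSO final.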",
  "data": [
    {"smiles": "COc1ccc([C@@H](O)c2cc(-c3ncnc4cc(N5CCOCC5)ccc34)c(F)cc2Cl)nn1", "note": "+ CC[C@@]1(O)C(=O)OCc2c1cc1n(c2=O)Cc2cc3c(CN(C)C)c(O)ccc3nc2-1", "values": [
      {"measurement": "IC50", "setting": "second compound 0.003 µM", "value": "< 31.6", "unit": "nM"},
      {"measurement": "IC50", "setting": "second compound 0.00949 µM", "value": "< 31.6", "unit": "nM"},
      {"measurement": "IC50", "setting": "second compound 0.03 µM", "value": "< 31.6", "unit": "nM"},
      {"measurement": "IC50", "setting": "second compound 0.0949 µM", "value": "< 31.6", "unit": "nM"},
      {"measurement": "IC50", "setting": "second compound 0.3 µM", "value": "< 31.6", "unit": "nM"},
      {"measurement": "viability, T/C", "setting": "second compound 0.003 µM, first compound 0.0316 µM", "value": 42.3, "unit": "%"},
      {"measurement": "viability, T/C", "setting": "second compound 0.003 µM, first compound 0.1 µM", "value": 46.7, "unit": "%"},
      {"measurement": "viability, T/C", "setting": "second compound 0.003 µM, first compound 0.316 µM", "value": 42.6, "unit": "%"},
      {"measurement": "viability, T/C", "setting": "second compound 0.003 µM, first compound 1 µM", "value": 38.4, "unit": "%"},
      {"measurement": "viability, T/C", "setting": "second compound 0.003 µM, first compound 3.16 µM", "value": 30.1, "unit": "%"},
      {"measurement": "viability, T/C", "setting": "second compound 0.003 µM, first compound 10 µM", "value": 10.6, "unit": "%"},
      {"measurement": "viability, T/C", "setting": "second compound 0.00949 µM, first compound 0.0316 µM", "value": 8.42, "unit": "%"},
      {"measurement": "viability, T/C", "setting": "second compound 0.00949 µM, first compound 0.1 µM", "value": 6.63, "unit": "%"},
      {"measurement": "viability, T/C", "setting": "second compound 0.00949 µM, first compound 0.316 µM", "value": 6.02, "unit": "%"},
      {"measurement": "viability, T/C", "setting": "second compound 0.00949 µM, first compound 1 µM", "value": 6.07, "unit": "%"},
      {"measurement": "viability, T/C", "setting": "second compound 0.00949 µM, first compound 3.16 µM", "value": 6.61, "unit": "%"},
      {"measurement": "viability, T/C", "setting": "second compound 0.00949 µM, first compound 10 µM", "value": 5.88, "unit": "%"},
      {"measurement": "viability, T/C", "setting": "second compound 0.03 µM, first compound 0.0316 µM", "value": 5.79, "unit": "%"},
      {"measurement": "viability, T/C", "setting": "second compound 0.03 µM, first compound 0.1 µM", "value": 6.19, "unit": "%"},
      {"measurement": "viability, T/C", "setting": "second compound 0.03 µM, first compound 0.316 µM", "value": 5.16, "unit": "%"},
      {"measurement": "viability, T/C", "setting": "second compound 0.03 µM, first compound 1 µM", "value": 5.17, "unit": "%"},
      {"measurement": "viability, T/C", "setting": "second compound 0.03 µM, first compound 3.16 µM", "value": 4.89, "unit": "%"},
      {"measurement": "viability, T/C", "setting": "second compound 0.03 µM, first compound 10 µM", "value": 3.08, "unit": "%"},
      {"measurement": "viability, T/C", "setting": "second compound 0.0949 µM, first compound 0.0316 µM", "value": 6.51, "unit": "%"},
      {"measurement": "viability, T/C", "setting": "second compound 0.0949 µM, first compound 0.1 µM", "value": 7.08, "unit": "%"},
      {"measurement": "viability, T/C", "setting": "second compound 0.0949 µM, first compound 0.316 µM", "value": 5.96, "unit": "%"},
      {"measurement": "viability, T/C", "setting": "second compound 0.0949 µM, first compound 1 µM", "value": 5.16, "unit": "%"},
      {"measurement": "viability, T/C", "setting": "second compound 0.0949 µM, first compound 3.16 µM", "value": 3.45, "unit": "%"},
      {"measurement": "viability, T/C", "setting": "second compound 0.0949 µM, first compound 10 µM", "value": 1.55, "unit": "%"},
      {"measurement": "viability, T/C", "setting": "second compound 0.3 µM, first compound 0.0316 µM", "value": 7.33, "unit": "%"},
      {"measurement": "viability, T/C", "setting": "second compound 0.3 µM, first compound 0.1 µM", "value": 7.08, "unit": "%"},
      {"measurement": "viability, T/C", "setting": "second compound 0.3 µM, first compound 0.316 µM", "value": 6.09, "unit": "%"},
      {"measurement": "viability, T/C", "setting": "second compound 0.3 µM, first compound 1 µM", "value": 3.58, "unit": "%"},
      {"measurement": "viability, T/C", "setting": "second compound 0.3 µM, first compound 3.16 µM", "value": 1.58, "unit": "%"},
      {"measurement": "viability, T/C", "setting": "second compound 0.3 µM, first compound 10 µM", "value": 1.36, "unit": "%"}
    ]},
    {"smiles": "O=C(c1cc(Cc2n[nH]c(=O)c3ccccc23)ccc1F)N1CCN(C(=O)C2CC2)CC1", "note": "+ COc1cc2c(cc1O)CCNC21CSC2c3c(OC(C)=O)c(C)c4c(c3C(COC1=O)N1C(O)C3Cc5cc(C)c(OC)c(O)c5C(C21)N3C)OCO4", "values": [
      {"measurement": "IC50", "setting": "second compound 30 pM", "value": 356, "unit": "nM"},
      {"measurement": "IC50", "setting": "second compound 94.9 pM", "value": "< 94.9", "unit": "nM"},
      {"measurement": "IC50", "setting": "second compound 0.0003 µM", "value": "< 94.9", "unit": "nM"},
      {"measurement": "IC50", "setting": "second compound 0.000949 µM", "value": "< 94.9", "unit": "nM"},
      {"measurement": "IC50", "setting": "second compound 0.003 µM", "value": "< 94.9", "unit": "nM"},
      {"measurement": "viability, T/C", "setting": "second compound 30 pM, first compound 0.0949 µM", "value": 67, "unit": "%"},
      {"measurement": "viability, T/C", "setting": "second compound 30 pM, first compound 0.3 µM", "value": 48.7, "unit": "%"},
      {"measurement": "viability, T/C", "setting": "second compound 30 pM, first compound 0.949 µM", "value": 41.7, "unit": "%"},
      {"measurement": "viability, T/C", "setting": "second compound 30 pM, first compound 3 µM", "value": 22.3, "unit": "%"},
      {"measurement": "viability, T/C", "setting": "second compound 30 pM, first compound 9.49 µM", "value": 12.5, "unit": "%"},
      {"measurement": "viability, T/C", "setting": "second compound 30 pM, first compound 30 µM", "value": 8.97, "unit": "%"},
      {"measurement": "viability, T/C", "setting": "second compound 94.9 pM, first compound 0.0949 µM", "value": 23.4, "unit": "%"},
      {"measurement": "viability, T/C", "setting": "second compound 94.9 pM, first compound 0.3 µM", "value": 13.7, "unit": "%"},
      {"measurement": "viability, T/C", "setting": "second compound 94.9 pM, first compound 0.949 µM", "value": 14, "unit": "%"},
      {"measurement": "viability, T/C", "setting": "second compound 94.9 pM, first compound 3 µM", "value": 13.3, "unit": "%"},
      {"measurement": "viability, T/C", "setting": "second compound 94.9 pM, first compound 9.49 µM", "value": 13.3, "unit": "%"},
      {"measurement": "viability, T/C", "setting": "second compound 94.9 pM, first compound 30 µM", "value": 6.02, "unit": "%"},
      {"measurement": "viability, T/C", "setting": "second compound 0.0003 µM, first compound 0.0949 µM", "value": 10.9, "unit": "%"},
      {"measurement": "viability, T/C", "setting": "second compound 0.0003 µM, first compound 0.3 µM", "value": 8.6, "unit": "%"},
      {"measurement": "viability, T/C", "setting": "second compound 0.0003 µM, first compound 0.949 µM", "value": 11.6, "unit": "%"},
      {"measurement": "viability, T/C", "setting": "second compound 0.0003 µM, first compound 3 µM", "value": 11.6, "unit": "%"},
      {"measurement": "viability, T/C", "setting": "second compound 0.0003 µM, first compound 9.49 µM", "value": 8.94, "unit": "%"},
      {"measurement": "viability, T/C", "setting": "second compound 0.0003 µM, first compound 30 µM", "value": 6.85, "unit": "%"},
      {"measurement": "viability, T/C", "setting": "second compound 0.000949 µM, first compound 0.0949 µM", "value": 6.97, "unit": "%"},
      {"measurement": "viability, T/C", "setting": "second compound 0.000949 µM, first compound 0.3 µM", "value": 8.6, "unit": "%"},
      {"measurement": "viability, T/C", "setting": "second compound 0.000949 µM, first compound 0.949 µM", "value": 8.56, "unit": "%"},
      {"measurement": "viability, T/C", "setting": "second compound 0.000949 µM, first compound 3 µM", "value": 7.26, "unit": "%"},
      {"measurement": "viability, T/C", "setting": "second compound 0.000949 µM, first compound 9.49 µM", "value": 5.7, "unit": "%"},
      {"measurement": "viability, T/C", "setting": "second compound 0.000949 µM, first compound 30 µM", "value": 4.86, "unit": "%"},
      {"measurement": "viability, T/C", "setting": "second compound 0.003 µM, first compound 0.0949 µM", "value": 0.61, "unit": "%"},
      {"measurement": "viability, T/C", "setting": "second compound 0.003 µM, first compound 0.3 µM", "value": 0.45, "unit": "%"},
      {"measurement": "viability, T/C", "setting": "second compound 0.003 µM, first compound 0.949 µM", "value": 0.63, "unit": "%"},
      {"measurement": "viability, T/C", "setting": "second compound 0.003 µM, first compound 3 µM", "value": 0.7, "unit": "%"},
      {"measurement": "viability, T/C", "setting": "second compound 0.003 µM, first compound 9.49 µM", "value": 0.69, "unit": "%"},
      {"measurement": "viability, T/C", "setting": "second compound 0.003 µM, first compound 30 µM", "value": 1.37, "unit": "%"}
    ]}
  ]
}
